Data published in patent US7223766B2, “Bi-cyclic pyrimidine inhibitors of TGFβ” (Scios, Inc., priority 2003, dated 2007).

Target: T1, TGF R1 kinase (Homo sapiens, UniProt P36897)
T1 sequence (P36897 34-503): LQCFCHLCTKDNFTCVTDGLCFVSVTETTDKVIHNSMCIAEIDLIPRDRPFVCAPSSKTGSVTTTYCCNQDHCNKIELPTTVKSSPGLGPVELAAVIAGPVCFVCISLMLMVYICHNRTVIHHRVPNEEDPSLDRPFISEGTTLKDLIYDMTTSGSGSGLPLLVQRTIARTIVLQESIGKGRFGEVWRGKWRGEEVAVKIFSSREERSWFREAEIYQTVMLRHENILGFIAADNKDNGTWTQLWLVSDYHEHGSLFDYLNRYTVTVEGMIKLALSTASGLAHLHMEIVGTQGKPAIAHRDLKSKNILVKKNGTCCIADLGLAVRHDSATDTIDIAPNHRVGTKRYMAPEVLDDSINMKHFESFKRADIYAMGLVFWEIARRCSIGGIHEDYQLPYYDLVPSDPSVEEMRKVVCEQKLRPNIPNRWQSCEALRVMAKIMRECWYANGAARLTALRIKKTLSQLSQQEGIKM
Test: TGF-β inhibition assay: phosphorylation of the substrate casein by TGF R1 kinase
Format: biochemical
Details: table names no assay; casein assay of Example 2: 2.5 μM ATP, 100 μM casein, 6.4 nM TGF R1 kinase
Procedure: Invention compounds were tested for their abilities to inhibit the phosphorylation of the substrate casein. The assay was conducted as follows: Compound dilutions and reagents were prepared fresh daily. Compounds were diluted from DMSO stock solutions to 2 times the desired assay concentration, keeping final DMSO concentration in the assay less than or equal to 1%. TGF RI kinase was diluted to 4 times the desired assay concentration in buffer and DTT. ATP and casein were diluted into 4× reaction buffer, and gamma-^32P-ATP was added at 50 μCi/mL.
The assay was performed by adding 10 μl of the enzyme to 20 μl of the compound solution. The reaction was initiated by the addition of 10 μl of the casein/ATP mix. Final assay conditions included 2.5 μM ATP, 100 μM casein, 6.4 nM TGF R1 kinase, and […] in 20 mM Tris buffer, pH 7.5. The reactions were incubated at room temperature for 45 minutes. The reactions were then stopped by transferring 23 μl of reaction mixture onto a phosphocellulose 96-well filter plate, which had been pre-wetted with 15 μl of 0.25M H3PO4 per well. After 5 minutes, the wells were washed 4× with 75 mM H3PO4 and once with 95% ethanol. The plate was dried, scintillation cocktail was added to each well, and the wells were counted in a Packard TopCount microplate scintillation counter. The ability of a compound to inhibit the enzyme was determined by comparing the counts obtained in the presence of the compound to those of the positive control (in the absence of compound) and the negative control (in the absence of enzyme).
In both of the assays referenced above, IC50 values can be determined with curve-fitting plots available with common software packages. Approximate IC50 values can be calculated using formula: IC50 (app)=A×i/(1−A) where A=fractional activity and i=total inhibitor concentration.

First: CNC(=O)c1cnccc1Nc1nc(-c2cc(Cl)ccc2F)nc2c1CCC2 [Compound 35]
Second: CN(C)CCCNC(=O)c1cnccc1Nc1nc(-c2cc(Cl)ccc2F)nc2c1CCC2 [Compound 69]
The IC50 of the first is 1.8-fold lower: 49 nM for the first, 90.2 nM for the second.

Going from `CNCCNC(=O)c1cnccc1Nc1nc(-c2cc(Cl)ccc2F)nc2c1CC(C)(C)C2` [Compound 66] to `CN1CCCC1CCNC(=O)c1cnccc1Nc1nc(-c2cc(Cl)ccc2F)nc2c1CCC2` (stereo not drawn) [Compound 73], the IC50 falls from 1250 nM to 309 nM (4-fold).

Compared with `COC(=O)c1cnccc1Nc1nc(-c2ccccc2)nc2c1CCC2` [Compound 67], `CNC(=O)c1cnccc1Nc1nc(-c2ccccc2)nc2c1CCC2` [Compound 68] is 31-fold lower in IC50: 8850 nM for the first, 289 nM for the second.

`O=C(NCCCN1CCOCC1)c1cnccc1Nc1nc(-c2cc(Cl)ccc2F)nc2c1CCC2` [Compound 70] and `O=C(NCCN1CCCC1)c1cnccc1Nc1nc(-c2cc(Cl)ccc2F)nc2c1CCC2` [Compound 75] are within 1.5-fold of each other in IC50: 529 nM for the first, 712 nM for the second.

Compared with `O=C(NCCCn1ccnc1)c1cnccc1Nc1nc(-c2cc(Cl)ccc2F)nc2c1CCC2` [Compound 71], `O=C(NCCCN1CCCC1=O)c1cnccc1Nc1nc(-c2cc(Cl)ccc2F)nc2c1CCC2` [Compound 72] is 7.7-fold higher in IC50: 844 nM for the first, 6460 nM for the second. The first is the more potent here.

Going from `CC1CCCCN1CCCNC(=O)c1cnccc1Nc1nc(-c2cc(Cl)ccc2F)nc2c1CCC2` (stereo not drawn) [Compound 74] to `O=C(NCCN1CCCCC1)c1cnccc1Nc1nc(-c2cc(Cl)ccc2F)nc2c1CCC2` [Compound 78], the IC50 rises from 115 nM to 2460 nM (21-fold).

First: CCN(CC)CCNC(=O)c1cnccc1Nc1nc(-c2ccccc2F)nc2c1CCC2 [Compound 79]
Second: Cc1cnccc1Nc1nc(-c2cc(Cl)ccc2F)nn2cccc12 [Compound 80]
The IC50 of the first is 6.5-fold higher: 5490 nM for the first, 849 nM for the second. The second is the more potent here.

Compared with `Fc1ccccc1-c1cc(Nc2ccncc2)n2ncnc2n1` [Compound 82], `Fc1ccccc1-c1cc(Nc2ccncn2)n2ncnc2n1` [Compound 83] is 1.9-fold higher in IC50: 8840 nM for the first, 16900 nM for the second.

Test system: P-Smad 2/3
Test: Bleomycin-induced SMAD phosphorylation in rats, phospho SMAD 2/3 ELISA of lung tissue
Format: in vivo, rat
Details: male Sprague-Dawley rats, intratracheal bleomycin, oral 40 mg/kg bid days 1 to 5, versus control group; 40 mg/kg
Procedure: The effect of TGF-beta inhibitors on bleomycin-induced SMAD phosphorylation was studied in male Sprague-Dawley rats purchased from Charles River. Rats were housed in groups of two in the animal facility and provided with filtered air at a constant temperature and humidity. The rats were allowed to acclimate to the new environment for one week before all treatments. A 12:12 hour light-dark cycle was maintained, and the animals had free access to food and water.
To induce SMAD activation, rats were intubated with 0.5 ml of saline or 0.5 ml of 1.0 unit/ml of bleomycin by intratracheal injection under anesthesia. The anesthetic solution used was a mixture of 0.4 ml of ketamine (100 mg/ml) and 0.25 ml of xylazine (20 mg/ml) at a dose of 1.3 ml/kg.
On days 1 to 5, treated rats were weighed and orally dosed with compound 35 two-times a day at 40 mg/kg.
On Day 5, after dosing, rats were sacrificed by an overdose of the ketamine/xylazine cocktail, and then the trachea, heart and lungs of the animals were removed en bloc. All lung lobes were collected, dissected and stored in −80° C. for phospo SMAD ELISA assays.
To evaluate the effect of SMAD activation (an indicia of fibrosis), a phospho SMAD 2/3 ELISA assay was performed using the lung tissue of the sacrificed animals.

For `CNC(=O)c1cnccc1Nc1nc(-c2cc(Cl)ccc2F)nc2c1CCC2` [Compound 35], the “bleomycin-induced phosphorylation of P-Smad 2/3 in the lung” value was “significantly reduce”.

Same assay, conditions: male Sprague-Dawley rats, intratracheal bleomycin, oral 40 mg/kg bid days 1 to 5, versus control group; listed as compound 35, 40 mg/kg

For `CNC(=O)c1cnccc1Nc1nc(-c2cc(Cl)ccc2F)nc2c1CCC2` [Compound 35], the “bleomycin-induced phosphorylation of P-Smad 2/3 in the lung” value was “reduce”.
